Experimental data taken from patent US20240166609A1, “ANTIBACTERIAL COMPOUNDS” (BLACKSMITH MEDICINES, INC., priority 2021, published 2024).
Values after ≈ are worked out from the molar mass of the structure shown.

Tests used:
[1] = system: P. aeruginosa 209 PAO1; test: Bacterial susceptibility testing, MIC by broth microdilution (CLSI); format: cell-based; conditions: Pseudomonas aeruginosa, 35° C., 18-24 h, read-out: MIC (μg/mL) P. aeruginosa 209 PAO1
Procedure: (§1) Minimal inhibitory concentrations (MIC) were determined by the broth microdilution method in accordance with the Clinical and Laboratory Standards Institute (CLSI) guidelines. In brief, organism suspensions were adjusted to a final inoculum between 3×10^5 and 7×10^5 colony-forming units (CFU)/mL. Drug dilutions and inocula were made in sterile, cation adjusted Mueller-Hinton Broth (Beckton Dickinson). In wells, an inoculum volume of 100 μL was mixed to 2 μL of DMSO with 2-fold serial dilutions of drug. All inoculated microdilution trays were incubated in ambient air at 35° C. for 18-24 h. Following incubation, the lowest concentration of the drug that prevented visible growth (OD600 nm<0.05) was recorded as the MIC. Performance of the assay was monitored by the use of laboratory quality-control strains and compounds with defined MIC spectrum, in accordance with CLSI guidelines

[2] = system: P. aeruginosa ATCC27835; test: as above; format: cell-based; conditions: Pseudomonas aeruginosa, 35° C., 18-24 h, read-out: MIC (μg/mL) P. aeruginosa ATCC27835
Procedure: as §1

[3] = system: K. pneumoniae ATCC13883; test: as above; format: cell-based; conditions: Klebsiella pneumoniae, 35° C., 18-24 h, read-out: MIC (μg/mL) K. pneumoniae ATCC13883
Procedure: as §1

[4] = molecular target: K. pneumoniae LpxC (Klebsiella pneumoniae subsp. pneumoniae, UniProt A6T4N9); test: LpxC Binding Assay (Rapid Fire MS assay); format: biochemical
[5] = molecular target: T1, P. aeruginosa LpxC (Pseudomonas aeruginosa, UniProt P47205); test: LpxC Binding Assay (Rapid Fire MS assay); format: biochemical
T1 sequence (P47205 1-303): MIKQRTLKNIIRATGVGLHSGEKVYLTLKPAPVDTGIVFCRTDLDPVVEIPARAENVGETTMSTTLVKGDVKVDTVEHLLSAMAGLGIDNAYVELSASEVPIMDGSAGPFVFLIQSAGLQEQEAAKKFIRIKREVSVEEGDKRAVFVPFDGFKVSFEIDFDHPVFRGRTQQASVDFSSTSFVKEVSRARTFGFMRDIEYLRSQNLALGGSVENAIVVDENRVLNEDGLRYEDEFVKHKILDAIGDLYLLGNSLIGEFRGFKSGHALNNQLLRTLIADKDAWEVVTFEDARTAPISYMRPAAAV
Procedure: (§2) IC50 values against E. coli and P. aeruginosa LpxC are determined using a Rapid Fire MS assay as previously described J. Med. Chem. 2012, 55, 1662-1670.

[6] = molecular target: T2, E. coli LpxC (Escherichia coli, UniProt P0A725); test: LpxC Binding Assay (Rapid Fire MS assay); format: biochemical
T2 sequence (P0A725 1-305): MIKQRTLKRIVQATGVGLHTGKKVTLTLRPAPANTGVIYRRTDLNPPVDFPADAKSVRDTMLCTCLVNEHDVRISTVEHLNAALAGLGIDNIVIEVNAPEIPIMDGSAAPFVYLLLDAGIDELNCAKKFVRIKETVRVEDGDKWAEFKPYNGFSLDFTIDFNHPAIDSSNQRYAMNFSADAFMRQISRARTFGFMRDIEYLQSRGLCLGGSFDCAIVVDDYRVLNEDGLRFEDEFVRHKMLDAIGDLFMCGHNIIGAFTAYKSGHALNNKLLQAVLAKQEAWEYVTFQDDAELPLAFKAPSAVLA
Procedure: as §2

[7] = system: E. coli ATCC25922; test: Bacterial susceptibility testing, MIC by broth microdilution (CLSI); format: cell-based; conditions: Escherichia coli, 35° C., 18-24 h, read-out: MIC (μg/mL) E. coli ATCC25922
Procedure: as §1

Sequence of K. pneumoniae LpxC (A6T4N9 whole entry): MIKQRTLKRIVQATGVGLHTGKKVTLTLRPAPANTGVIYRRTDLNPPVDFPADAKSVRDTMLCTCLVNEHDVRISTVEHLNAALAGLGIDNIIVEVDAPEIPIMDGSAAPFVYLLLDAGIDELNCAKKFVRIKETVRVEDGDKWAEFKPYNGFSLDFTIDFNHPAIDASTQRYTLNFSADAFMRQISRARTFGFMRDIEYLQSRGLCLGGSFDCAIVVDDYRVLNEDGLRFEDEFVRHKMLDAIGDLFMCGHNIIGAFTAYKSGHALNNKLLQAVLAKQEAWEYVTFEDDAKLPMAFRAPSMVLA

| Structure (SMILES) | MIC [1] [µg/mL] | MIC [2] [µg/mL] | MIC [3] [µg/mL] | IC50 [4] [nM] | IC50 [5] [nM] | IC50 [6] [nM] | MIC [7] [µg/mL] |
| --- | --- | --- | --- | --- | --- | --- | --- |
| C[C@H](O)c1nccn1[C@@H](C#Cc1ccc(-c2ccc(O[C@H]3COC[C@@H]3O)cc2)cc1)CN (relative stereo) [Compound 24, (trans)-4-((4′-((S)-4-amino-3-(2-((S)-1-hydroxyethyl)-1H-imidazol-1-yl)but-1-yn-1-yl)-[1,1′-biphenyl]-4-yl)oxy)tetrahydrofuran-3-ol] | 2 (≈ 4.61 µM) | 4 (≈ 9.23 µM) | 4 (≈ 9.23 µM) | 4.1 | 42.9 | 1.9 |  |
| C[C@H](O)c1nccn1CC#Cc1ccc(-c2ccc(C3CC(NC4COC4)C3)cc2)cc1 (stereo partly drawn) [Compound 20, (S)-1-(1-(3-(4′-(3-(oxetan-3-ylamino)cyclobutyl)-[1,1′-biphenyl]-4-yl)prop-2-yn-1-yl)-1H-imidazol-2-yl)ethan-1-ol] | 4 (≈ 9.36 µM) | 4 (≈ 9.36 µM) | 0.5 (≈ 1.17 µM) | 0.7 | 11.8 | < 0.5 |  |
| COCC(N)COc1ccc(-c2ccc(C#C[C@@H](CO)n3ccnc3[C@H](C)O)cc2)cc1 (mixture of isomers) [Compound 3, (2S)-4-(4′-(2-amino-3-methoxypropoxy)-[1,1′-biphenyl]-4-yl)-2-(2-((S)-1-hydroxyethyl)-1H-imidazol-1-yl)but-3-yn-1-ol] | 1 (≈ 2.3 µM) | 2 (≈ 4.59 µM) | 4 (≈ 9.18 µM) | 2.2 | 15.1 | 1.5 | 2 (≈ 4.59 µM) |
| C[C@H](O)c1nccn1[C@@H](C#Cc1ccc(-c2ccc(OCC(C)(O)CO)cc2)cc1)CO (mixture of isomers) [Compound 16, 3-((4′-((S)-4-hydroxy-3-(2-((S)-1-hydroxyethyl)-1H-imidazol-1-yl)but-1-yn-1-yl)-[1,1′-biphenyl]-4-yl)oxy)-2-methylpropane-1,2-diol] | 2 (≈ 4.58 µM) | 4 (≈ 9.16 µM) | 4 (≈ 9.16 µM) | 2.2 | 8.3 | 1.3 |  |
| C[C@H](O)c1nccn1CC#Cc1ccc(-c2ccc(C3CC(NCCO)C3)cc2)cc1 (stereo partly drawn) [Compound 19, (S)-2-((3-(4′-(3-(2-(1-hydroxyethyl)-1H-imidazol-1-yl)prop-1-yn-1-yl)-[1,1′-biphenyl]-4-yl)cyclobutyl)amino)ethan-1-ol] | 4 (≈ 9.63 µM) | 4 (≈ 9.63 µM) | 1 (≈ 2.41 µM) | 0.7 | 15.9 | < 0.5 |  |
| C[C@H](O)c1nccn1[C@@H](C#Cc1ccc(-c2ccc(OCCC(O)CO)cc2)cc1)CO (mixture of isomers) [Compound 17, 4-((4′-((S)-4-hydroxy-3-(2-((S)-1-hydroxyethyl)-1H-imidazol-1-yl)but-1-yn-1-yl)-[1,1′-biphenyl]-4-yl)oxy)butane-1,2-diol] | 1 (≈ 2.29 µM) | 2 (≈ 4.58 µM) | 2 (≈ 4.58 µM) | 1 | 6.6 | 0.5 |  |
| C[C@H](O)c1nccn1[C@@H](C#Cc1ccc(-c2ccc(OCC(O)CCCO)cc2)cc1)CO (stereo partly drawn) [Compound 23, 5-((4′-((S)-4-hydroxy-3-(2-((S)-1-hydroxyethyl)-1H-imidazol-1-yl)but-1-yn-1-yl)-[1,1′-biphenyl]-4-yl)oxy)pentane-1,4-diol] | 2 (≈ 4.44 µM) | 2 (≈ 4.44 µM) | 2 (≈ 4.44 µM) | 1 | 7.8 | 0.5 |  |
| C[C@H](O)c1nccn1[C@@H](C#Cc1ccc(-c2ccc(OCC3COCCO3)cc2)cc1)CO (mixture of isomers) [Compound 13, (2S)-4-(4′-((1,4-dioxan-2-yl)methoxy)-[1,1′-biphenyl]-4-yl)-2-(2-((S)-1-hydroxyethyl)-1H-imidazol-1-yl)but-3-yn-1-ol] | 2 (≈ 4.46 µM) | 4 (≈ 8.92 µM) | 1 (≈ 2.23 µM) | 0.9 | 5.5 | < 0.5 |  |
